# Data published in patent US8283291B2, “Herbicidal composition” (Kumiai Chemical Industry Co., Ltd., priority 2006, dated 2012).
# Tests used:
# Experiment in all cases: Test on herbicidal effects against weeds and phytotoxicity by foliage treatment in upland field
# Conditions in all cases: 25 gai/ha, 21st day
# velvetleaf (ABUTH) = type: in vivo, Abutilon theophrasti
# Method: (§1) In a plastic pot of 11 cm in length×11 cm in width×11 cm in depth, the upland soil was filled, and seeds of corn (ZEAMX), soybean (GLXMA), greenfoxtail (SETVI), shattercane (SORVU), redroot pigweed (AMARE), Ipomoea lacunosa L. (IPOLA) and velvetleaf (ABUTH) were sown and covered with soil.
# (§2) Then, cultivation was carried out in a greenhouse for 10 days. Then, a wettable powder prepared in accordance with Formulation Example 1 was weighed so that active ingredients would be the prescribed amounts, diluted with water and uniformly applied on the soil surface by means of a small size spray at a rate of 500 liter per 1 hectare. Thereafter, cultivation was carried out in a greenhouse, and on the 21st day after the treatment, the herbicidal effects and phytotoxicity were examined in accordance with the standards as identified in Table 15.
# shattercane (SORVU) = type: in vivo, Sorghum vulgare
# Method: as §1, §2
# [1] = test system: Ipomoea lacunosa L. (IPOLA); type: in vivo
# Method: as §1, §2
# greenfoxtail (SETVI) = type: in vivo, Setaria viridis
# Method: as §1, §2
# corn (ZEAMX) = type: in vivo
# Method: as §1
# as §2, with “diluted with water and uniformly applied on the soil surface by means of a small size” left out
# soybean (GLXMA) = type: in vivo
# Method: as §1
# as §2, with “diluted with water and uniformly applied on the soil surface by means of a small size” left out
# redroot pigweed (AMARE) = type: in vivo, Amaranthus retroflexus L.
# Method: as §1, §2
compound,measurement,setting,value
COCc1cccc(C(O)c2nc(OC)cc(OC)n2)c1NS(=O)(=O)C(F)F (stereo not shown) [Pyrimisulfan],herbicidal effect ABUTH,velvetleaf (ABUTH),10 (Herbicidal effect or phytotoxicity of 100%)
same,herbicidal effect SORVU,shattercane (SORVU),8 (Herbicidal effect or phytotoxicity of at least 80% and less than 90%)
same,herbicidal effect IPOLA,[1],9 (Herbicidal effect or phytotoxicity of at least 90% and less than 100%)
same,herbicidal effect SETVI,greenfoxtail (SETVI),6 (Herbicidal effect or phytotoxicity of at least 60% and less than 70%)
same,phytotoxicity ZEAMX,corn (ZEAMX),2 (Herbicidal effect or phytotoxicity of at least 20% and less than 30%)
same,phytotoxicity GLXMA,soybean (GLXMA),2 (Herbicidal effect or phytotoxicity of at least 20% and less than 30%)
same,herbicidal effect AMARE,redroot pigweed (AMARE),10 (Herbicidal effect or phytotoxicity of 100%)
